Residue numbers refer to the chain shown, from its start. Blank lines part the entries; values can stand above or below the compound they belong to.
Columns and labels:
Test in all cases: whole-cell patch clamp, HEK293T cells expressing mutant
Type in all cases: cell-based
Conditions in all cases: for relative responsiveness: 100 µM agonist 2 s, relative to ATP (100%)
rP2X4R H286A mutant = biological target: T1, rP2X4R H286A mutant (Rattus norvegicus, UniProt P51577, H286A)
T1 construct: expressed in transfected cells; host or cells: HEK293T
T1 sequence (P51577 1-388 H286A): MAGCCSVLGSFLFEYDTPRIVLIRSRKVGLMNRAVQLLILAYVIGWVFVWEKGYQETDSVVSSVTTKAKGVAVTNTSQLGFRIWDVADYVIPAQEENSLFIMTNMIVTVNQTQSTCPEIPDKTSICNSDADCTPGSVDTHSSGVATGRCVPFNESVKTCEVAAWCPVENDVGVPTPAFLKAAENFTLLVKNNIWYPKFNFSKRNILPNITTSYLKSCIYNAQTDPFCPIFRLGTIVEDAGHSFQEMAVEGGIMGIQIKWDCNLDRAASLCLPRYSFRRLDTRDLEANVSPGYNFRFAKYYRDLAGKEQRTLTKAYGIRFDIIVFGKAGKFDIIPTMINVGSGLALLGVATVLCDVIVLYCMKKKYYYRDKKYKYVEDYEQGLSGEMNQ
Protocol: (§1) To express the recombinant channels, we used human embryonic kidney (HEK) 293T cells (American Type Culture Collection, Rockville, MD, USA) grown in Dulbecco modified Eagle’s medium (Thermo Fisher Scientific, Waltham, MA) supplemented with 10% fetal bovine serum (Sigma-Aldrich, St Louis, MO), 50 U/ml penicillin and 50 µg/ml streptomycin (both Thermo Fisher Scientific, Waltham, MA) in a humidified 5% CO2 and 95% air at 37°C. Cells were cultured in 75 cm^2 plastic culture flasks (NUNC, Rochester, NY) for 36–72 hours until reaching 80–95% confluence. Before the day of transfection, the cells were plated on 35 mm culture dishes (Sarstedt, Newton, NC) and incubated at 37°C for at least 24 h. Transfection was done using 2 µg of either WT or mutant receptor DNA with 2 µl of JetPrime reagent in 2 ml of Dulbecco modified Eagle’s medium, according to manufacturer’s instructions (PolyPlus-transfection, Illkirch, France). Transfected cells were identified by the fluorescence signal of EGFP using the Olympus IX71 inverted research microscope with fluorescence illuminators (Model IX71; Olympus, Melville, NY).
(§2) cDNAs encoding the sequences of the rP2X4 and mutated subunits were subcloned into the pIRES2-EGFP vector (Clontech, Mountain View, CA, USA). To generate the mutants, oligonucleotides (synthesized and provided by VBC-Genomics, Vienna, Austria or Sigma Aldrich) containing specific mutagenesis mismatches were introduced into the rP2X4/pIRES2-EGFP template using PfU Ultra DNA polymerase (Thermo Fisher Scientific). A High-Speed Plasmid Mini Kit (Geneaid, Taipei City, Taiwan) was used to isolate the plasmids for transfection. Dye terminator cycle sequencing (ABI PRISM 3100, Applied Biosystems, Foster City, CA) was used to identify and verify the presence of the mutations. The sequencing was performed by the DNA Sequencing Laboratory, Institute of Microbiology, ASCR, Prague.
(§3) ATP-induced currents were recorded from whole cells clamped to −60 mV using an Axopatch 200B patch-clamp amplifier (Axon Instruments, Union City, CA). The recordings were captured and stored using the Digidata 1322A and pClamp9 software package (Axon Instruments). During the experiments, the cell culture was perfused with a bath solution containing: 142 mM NaCl, 3 mM KCl, 2 mM CaCl2, 1 mM MgCl2, 10 mM 4-(2-Hydroxyethyl)piperazine-1-ethanesulfonic acid (HEPES) and 10 mM D-glucose, adjusted to pH 7.3 with 1 M NaOH. The patch electrodes were filled with a solution containing: 154 mM CsCl, 11 mM EGTA and 10 mM HEPES, adjusted to pH 7.2 with 1.6 M CsOH. The whole-cell configuration was used to abolish the influence of natively present metabotropic receptors for ATP and we used intracellular cesium to block any kind of possible background potassium conductance. Potency of ATP was measured based on the activation of naïve (not previously stimulated) receptors using a short (2–5 s) application of various concentrations of ATP. The results are expressed as molar concentration of ATP required to produce 50% of the maximal response (EC50). One or two responses were recorded from one cell, if not otherwise stated, and responses from different cells were pooled. The maximum current amplitude (Imax) was measured in response to application of supramaximal concentrations (100–1000 µM) of ATP. Responsiveness to P2XR agonists 2-MeS-ATP, ATPγS, BzATP, and α,β-meATP, all applied in 100 µM concentration, was expressed as percentage of response in comparison to 100 µM ATP treatment for selected mutants. In all mutants, the whole cell currents were also measured in the presence of 3 µM IVM, which was dissolved in dimethyl sulfoxide, stored in stock solutions at 10 mM, and diluted to required concentrations in bath solution in the day of experiment. The control and drug containing solutions were applied via a rapid (exchange time 30–40 ms) perfusion system (RSC-200, BIOLOGIC, Claix, France). All other chemicals are from Sigma-Aldrich. […]

rP2X4R S212A mutant = biological target: T2, rP2X4R S212A mutant (Rattus norvegicus, UniProt P51577, S212A)
T2 construct: expressed in transfected cells; host or cells: HEK293T
T2 sequence (P51577 1-388 S212A): T1 sequence (P51577 1-388 H286A) with S212A, A286H
Protocol: as §1, §2, §3

rP2X4R Y292A mutant = biological target: T3, rP2X4R Y292A mutant (Rattus norvegicus, UniProt P51577, Y292A)
T3 construct: expressed in transfected cells; host or cells: HEK293T
T3 sequence (P51577 1-388 Y292A): T1 sequence (P51577 1-388 H286A) with A286H, Y292A
Protocol: as §1, §2, §3

[1] = 100 µM ATP 60 s, biexponential fit
[2] = contribution of τdes2, 100 µM ATP 60 s
[3] = decay after removal of 1 or 3 µM ATP, 3 µM IVM
[4] = naïve receptors, 2–5 s application
[5] = 3 µM IVM 4-6 min vs IVM-untreated

- relative responsiveness (rP2X4R H286A mutant): 67.9±1.2%
- relative responsiveness (rP2X4R S212A mutant): 65.1±19.7%
- relative responsiveness (rP2X4R Y292A mutant): 49.8±8.6%
Compound: CSc1nc(N)c2ncn([C@@H]3O[C@H](COP(=O)(O)OP(=O)(O)OP(=O)(O)O)[C@@H](O)[C@H]3O)c2n1 [2-MeS-ATP, 2-(Methylthio)adenosine 5′-triphosphate]

Compound: 2′(3′-O-(4-Benzoylbenzoyl)adenosine 5′-triphosphate [BzATP]
- relative responsiveness (rP2X4R H286A mutant): 25.6±4.0%
- relative responsiveness (rP2X4R S212A mutant): 47.5±5.2%
- relative responsiveness (rP2X4R Y292A mutant): 28.9±8.2%

Compound: Nc1ncnc2c1ncn2[C@@H]1O[C@H](COP(=O)(O)OP(=O)(O)OP(=O)(O)O)[C@@H](O)[C@H]1O [ATP]
- τdes1 (rP2X4R H286A mutant; [1]): 4.0 ± 0.8 s
- τdes2 (rP2X4R H286A mutant; [1]): 16.2 ± 1.6 s
- Imax+IVM (rP2X4R H286A mutant; ATP after 3 µM IVM 4-6 min): 4.2 ± 0.7 nA
- A2 /(A1+A2) (rP2X4R H286A mutant; [2]): 55 ± 5%
- τoff +IVM (rP2X4R H286A mutant; [3]): 12 ± 2.1 s
- EC50 (rP2X4R H286A mutant; [4]): 20 ± 2.9 µM
- τdes (rP2X4R H286A mutant; weighted, 100 µM ATP 60 s): 11 ± 1.4 s
- τdes1 (rP2X4R S212A mutant; [1]): 1.7 ± 0.4 s
- τdes2 (rP2X4R S212A mutant; [1]): 11.4 ± 1.5 s
- Imax (rP2X4R S212A mutant; 100–1000 µM ATP): 2.1 ± 0.2 nA
- Imax+IVM (rP2X4R S212A mutant; ATP after 3 µM IVM 4-6 min): 3.4 ± 0.2 nA
- A2 /(A1+A2) (rP2X4R S212A mutant; [2]): 62 ± 5%
- τoff +IVM (rP2X4R S212A mutant; [3]): 20 ± 5.0 s
- EC50 (rP2X4R S212A mutant; [4]): 4.8 ± 1.2 µM
- τdes (rP2X4R S212A mutant; weighted, 100 µM ATP 60 s): 7.8 ± 1.1 s
- τdes1 (rP2X4R Y292A mutant; [1]): 1.9 ± 0.2 s
- τdes2 (rP2X4R Y292A mutant; [1]): 15.8 ± 0.2 s
- Imax (rP2X4R Y292A mutant; 100–1000 µM ATP): 1.9 ± 0.3 nA
- Imax+IVM (rP2X4R Y292A mutant; ATP after 3 µM IVM 4-6 min): 4.3 ± 0.3 nA
- A2 /(A1+A2) (rP2X4R Y292A mutant; [2]): 57 ± 3%
- τoff +IVM (rP2X4R Y292A mutant; [3]): 11 ± 1.2 s
- EC50 (rP2X4R Y292A mutant; [4]): 7.2 ± 1.9 µM
- τdes (rP2X4R Y292A mutant; weighted, 100 µM ATP 60 s): 10 ± 1.5 s

Compound: Nc1ncnc2c1ncn2C1OC(COP(=O)(O)CP(=O)(O)OP(=O)(O)O)C(O)C1O (stereo not drawn) [α,β-meATP, α,β-methyleneadenosine 5′-triphosphate]
- relative responsiveness (rP2X4R H286A mutant): 30.0±6.8%
- relative responsiveness (rP2X4R S212A mutant): 19.2±6.2%
- relative responsiveness (rP2X4R Y292A mutant): 16.2±4.4 %

- relative responsiveness (rP2X4R H286A mutant): 39.8±6.2%
- relative responsiveness (rP2X4R S212A mutant): 61.7±3.9%
- relative responsiveness (rP2X4R Y292A mutant): 42.3±7.0%
Compound: Nc1ncnc2c1ncn2[C@@H]1O[C@H](CO[P@](=O)(O)O[P@](=O)(O)O[P@@](=O)(O)S)[C@@H](O)[C@H]1O [ATPγS, Adenosine 5′-(γ-thio)triphosphate]

Compound: CC[C@H](C)[C@H]1O[C@]2(CC[C@@H]1C)C[C@@H]1C[C@@H](C/C=C(\C)[C@@H](O[C@H]3C[C@H](OC)[C@@H](O[C@H]4C[C@H](OC)[C@@H](O)[C@H](C)O4)[C@H](C)O3)[C@@H](C)/C=C/C=C3\CO[C@@H]4[C@H](O)C(C)=C[C@@H](C(=O)O1)[C@]34O)O2 [IVM, ivermectin]
- Fold incr. Imax (rP2X4R H286A mutant; [5]): 1.9 ± 0.3 fold
- Fold incr. Imax (rP2X4R S212A mutant; [5]): 1.6 ± 0.2 fold
- Fold incr. Imax (rP2X4R Y292A mutant; [5]): 2.0 ± 0.3 fold
